Data: PMC6611227 (Frontiers in Microbiology, 2019)
Like-named read-outs stand apart in the source and are kept apart here.

B1: StDHODH (dihydroorotate dehydrogenase) (Solanum tuberosum; I273V/I299V/P120T/P359Q) (protein)
chain: ASTVDEATFCGWLFSATKLVNPFFAFLDPEVAHRLAVSAAARGWVPREKRTDLPILGLDVWGRRFSNPVGLAAGFDKNAEAVEGLLGLGFGFVEVGSVTPIPQEGNPKPRIFRLPNEGALINRCGFNSEGIVAVAKRLGAQHGKRKLETSSTSSPAGDEVKHGGKAGPGILGVNLGKNKTSEDAAADYVQGVHTLSQYADYLVVNISSPNTPGLRQLQGRKQLKDLVKKVQAARDEMQWGEEGPPPLLVKIAPDLSKQDLEDIAAVALALRVDGLIISNTTIQRPDSVSQNPVAQETGGLSGKPLFNMSTNILKEMYLLTKGRIPLIGCGGISSGEDAYKKIRAGATLVQLYTAFGYGGPALIPNIKAELAHCLEKDGYKSVHEAVGADCR

Key:
[1] = target: T1, PiDHODH (dihydroorotate dehydrogenase) (Phytophthora infestans, UniProt D0MUE3); assay: biochemical
T1 construct: gene PITG_01913
T1 sequence (D0MUE3 55-424 limits assumed): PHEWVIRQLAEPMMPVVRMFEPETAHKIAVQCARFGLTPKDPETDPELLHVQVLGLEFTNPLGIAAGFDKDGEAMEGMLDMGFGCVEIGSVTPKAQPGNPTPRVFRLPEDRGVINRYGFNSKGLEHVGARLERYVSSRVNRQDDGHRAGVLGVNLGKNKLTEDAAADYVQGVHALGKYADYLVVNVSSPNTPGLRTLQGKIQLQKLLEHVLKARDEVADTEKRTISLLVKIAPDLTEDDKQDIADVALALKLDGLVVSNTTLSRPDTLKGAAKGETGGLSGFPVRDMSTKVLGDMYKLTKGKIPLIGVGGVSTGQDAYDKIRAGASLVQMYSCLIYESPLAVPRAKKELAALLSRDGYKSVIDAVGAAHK

[2] = target: T1, PiDHODH (dihydroorotate dehydrogenase); assay: biochemical; conditions: read-out: Activity % PiDHODH
[3] = tested on: O=C1C[C@@H](C(=O)O)NC(=O)N1; assay: purified protein
[4] = substrate: O=C1C[C@@H](C(=O)O)NC(=O)N1; assay: purified protein; conditions: FMN orotate/dihydroorotate site in the α/β-barrel domain

Molecule | activity at 500 µM [2] [%] | further results
C/C(O)=C(\C#N)C(=O)Nc1ccc(C(F)(F)F)cc1 [A77 1726] | – | IC50 [1]: 79 ± 8 µM
Cc1cc(Nc2cc(F)c(C(F)(F)F)c(F)c2)n2ncnc2n1 [DSM190, N-(3,5-difluoro-4-(trifluoromethyl)phenyl)-5-methyl-[1,2,4]triazolo[1,5-a]pyrimidin-7-amine] | 36 ± 10 | –
COc1cc(-c2ccc(Nc3ccccc3C(=O)O)c(OC)c2)ccc1Nc1ccccc1C(=O)O [Redoxal] | 31 ± 8 | –
O=C(O)C1=C(C(=O)Nc2ccc(-c3ccccc3)cc2)CCC1 [compound 1, 2-(4-biphenylylcarbamoyl)-1-cyclopentene-1-carboxylic acid] | 23 ± 4 | –
COc1c(-c2ccccc2)ccc(NC(=O)C(C#N)=C(C)O)c1Cl [compound 19, N-(3-chloro-2-methoxybiphenyl-4-yl)-2-cyano-3-hydroxybut-2-enamide] | 2 ± 0.5 | –
CC(O)=C(C#N)C(=O)Nc1ccc(-c2ccccc2)cc1Cl [compound 28, N-(3-chlorobiphenyl-4-yl)-2-cyano-3-hydroxybut-2-enamide] | 1 ± 0.7 | –
O=C1C(O)=C(CC=C(Cl)Cl)C(=O)c2ccccc21 [dichloroallyl lawsone] | 30 ± 2 | –
PiDHODH (dihydroorotate dehydrogenase) (Phytophthora infestans T30-4) | – | Km [3]: 57 ± 3 µM
B1 | – | Km [4]: 20 ± 1 µM
